Laboratory results from patent US20220409620A1, “REDUCING IMMUNOGENICITY TO PEGLOTICASE” (Horizon Pharma Rheumatology LLC, priority 2016, published 2022).

Experiments:
[1] = test system: adult patients with uncontrolled gout; assay: Patient and physician global assessment of gout, open-label study; assay type: in vivo, human; conditions: Methotrexate Baseline, mITT Population
Text: Patient Global Assessment: The patient global assessment was collected at the Screening and Week −4 (prior to the first dose of MTX) Visits during the MTX Run-in Period; prior to KXX infusion at the Day 1 and Weeks 14, 24 and 36 Visits during the KXX+MTX Period; at the End of Pegloticase Infusions Visit (if applicable); the Week 52/End of Study/Early Termination Visit and the Post Treatment Periods 3 and 6 Month Follow-up Visits.
Physician Global Assessment: The physician global assessment was collected at the Screening and Week −4 or week −6 (prior to the first dose of MTX) Visits during the MTX Run-in Period for the open-label and randomized studies, respectively; prior to pegloticase infusion at the Day 1 and Weeks 14, 24 and 36 Visits, and the Day 1 and week 6, 14, 20, 24, 30, 36, and 44 visits during the Pegloticase+IMM Period for the open-label and randomized studies, respectively; at the End of Pegloticase Infusions Visit (if applicable), the Week 52/End of Study/Early Termination Visit and the Post Treatment Periods 3 and 6 Month Follow-up Visits (open-label study).

[2] = test system: patients with refractory chronic gout; assay: Prior Phase 3 / pre-marketing pegloticase monotherapy trials (C0405 and C0406): response, infusion reactions, antibodies, PK; assay type: in vivo, human
Protocol: Improvements were more rapid in patients who received pegloticase 8 mg every 2 weeks compared to every 4 weeks and met the outcomes data of complete resolution of at least 1 tophus with no new or progressive tophi as assessed by blinded assessment of digital photographs of target tophi.
During the second 3 months of treatment, a lower proportion of pegloticase-treated patients experienced flares than patients receiving placebo. The incidence of flares during this period was lowest in the group receiving pegloticase 8 mg every 2 weeks than in the group who received pegloticase 8 mg every 4 weeks, as was the incidence of infusion-related reactions (26% with biweekly dosing vs. 40% with the every-4-week dosing regimen). Both infusion reactions (IRs) and gout flares were least common in patients with sustained urate-lowering responses to treatment and those who received bi-weekly treatment. In most pegloticase-treated patients with IRs, a loss of response to pegloticase (return to SUA >6 mg/dL) preceded the time of the first IR ( 20/21; 95%).
A relationship between the loss of urate-lowering efficacy, incidence of IRs, and high-titer antibody formation was identified in a post-hoc analysis of the pooled data from the Phase 3 studies. […] In one study, 69 (41%) of 169 patients receiving pegloticase developed high titer anti-pegloticase antibodies and subsequently lost response to the drug. In a second study, only 1 of 52 participants with high antibody titers maintained a response to pegloticase (serum urate <6 mg/dL). In addition, 60% participants with high titers developed IR. Anti-pegloticase antibodies were largely directed to the polyethylene glycol (PEG) portion of the molecule and altered the pharmacokinetic clearance of pegloticase, resulting in inhibition of SUA lowering activity. […] In addition, 31 of 52 (60%) patients with titers exceeding 1:2430 developed IRs. […] By preventing the formation of anti-pegloticase antibodies, a tolerizing dose regimen should prevent loss of response to the drug and decrease the incidence of IRs associated with it.
An AE that was not an unexpected AE was an infusion reaction and rarely anaphylaxis. Safety assessments in this study include an evaluation of the frequency and severity of IRs and anaphylaxis. During pre-marketing controlled clinical trials, infusion reactions were reported in 26% of patients treated with pegloticase 8 mg every 2 weeks. During pre-marketing controlled clinical trials, anaphylaxis was reported with a frequency of 6.5% of patients treated with pegloticase. For the purposes of this study, these events shall be defined as follows: […]
Methods: In the MIRROR OL trial, MTX (15 mg/week) was given orally 4 weeks prior to the first pegloticase dose and continued weekly, in combination with pegloticase 8 mg given intravenously every 2 weeks, for a treatment duration of up to 52 weeks. Pre-infusion samples were collected to measure MTX-PGs 1 to 5 in red blood cells at day 1, week 4, 8, 22, 24 and 36. […] Pegloticase concentrations in serum was measured using a validated enzymatic/fluorescence assay. The limit of quantification is 0.6 μg/mL. Anti-pegloticase/PEG IgG antibodies (ADA) were measured using a validated enzyme linked immunosorbent assay (ELISA). The analysis of MTX Polyglutamates was conducted by Exagen. The impact of MTX on pegloticase PK was evaluated by two methods: (1) Comparing pegloticase exposures (median Cmax and Cmin across visits) with MTX from the MIRROR OL trial to the observed levels in historical monotherapy Phase 3 studies (C0405 and C0406) (Lipsky et al., Arthritis Res Ther 16(2), 2014; Sundy et al., JAMA 306(7), 2011). Overlaying observed pegloticase concentrations with MTX against the 90% prediction band of pegloticase concentrations following monotherapy based on the population PK model from the Phase 3 data (Yue et al., ASCPT. Atlanta, 2010).

[3] = End of Pegloticase Infusions Visit

Substance: pegloticase
- Patient Global Assessment of Gout, Change from Baseline, Mean (SD) ([1]; Day 1): 0.2 (1.85)
- Patient Global Assessment of Gout, Change from Baseline, Median ([1]; Day 1): 0.0
- Patient Global Assessment of Gout, Observed, Mean (SD) ([1]; Day 1): 5.8 (1.76)
- Patient Global Assessment of Gout, Observed, Median ([1]; Day 1): 6.0
- Physician Global Assessment of Gout, Change from Baseline, Mean (SD) ([1]; Day 1): −0.1 (2.35)
- Physician Global Assessment of Gout, Change from Baseline, Median ([1]; Day 1): 0.0
- Physician Global Assessment of Gout, Observed, Mean (SD) ([1]; Day 1): 6.0 (2.45)
- Physician Global Assessment of Gout, Observed, Median ([1]; Day 1): 7.0
- Patient Global Assessment of Gout, Change from Baseline, Mean (SD) ([1]; Early Termination Visit): 0.7 (2.89)
- Patient Global Assessment of Gout, Change from Baseline, Median ([1]; Early Termination Visit): −1.0
- Patient Global Assessment of Gout, Observed, Mean (SD) ([1]; Early Termination Visit): 5.7 (3.06)
- Patient Global Assessment of Gout, Observed, Median ([1]; Early Termination Visit): 5.0
- Physician Global Assessment of Gout, Change from Baseline, Mean (SD) ([1]; Early Termination Visit): −2.7 (2.08)
- Physician Global Assessment of Gout, Change from Baseline, Median ([1]; Early Termination Visit): −2.0
- Physician Global Assessment of Gout, Observed, Mean (SD) ([1]; Early Termination Visit): 3.7 (2.08)
- Physician Global Assessment of Gout, Observed, Median ([1]; Early Termination Visit): 3.0
- Patient Global Assessment of Gout, Change from Baseline, Mean (SD) [1, 3]: −4.0 (4.24)
- Patient Global Assessment of Gout, Change from Baseline, Median [1, 3]: −4.0
- Patient Global Assessment of Gout, Observed, Mean (SD) [1, 3]: 2.0 (2.83)
- Patient Global Assessment of Gout, Observed, Median [1, 3]: 2.0
- Physician Global Assessment of Gout, Change from Baseline, Mean (SD) [1, 3]: −7.0 (0.00)
- Physician Global Assessment of Gout, Change from Baseline, Median [1, 3]: −7.0
- Physician Global Assessment of Gout, Observed, Mean (SD) [1, 3]: 0.5 (0.71)
- Physician Global Assessment of Gout, Observed, Median [1, 3]: 0.5
- Patient Global Assessment of Gout, Change from Baseline, Mean (SD) ([1]; Week 14): −2.5 (2.77)
- Patient Global Assessment of Gout, Change from Baseline, Median ([1]; Week 14): −2.5
- Patient Global Assessment of Gout, Observed, Mean (SD) ([1]; Week 14): 3.1 (2.27)
- Patient Global Assessment of Gout, Observed, Median ([1]; Week 14): 3.0
- Physician Global Assessment of Gout, Change from Baseline, Mean (SD) ([1]; Week 14): −4.2 (2.22)
- Physician Global Assessment of Gout, Change from Baseline, Median ([1]; Week 14): −5.0
- Physician Global Assessment of Gout, Observed, Mean (SD) ([1]; Week 14): 1.9 (1.64)
- Physician Global Assessment of Gout, Observed, Median ([1]; Week 14): 2.0
- Patient Global Assessment of Gout, Change from Baseline, Mean (SD) ([1]; Week 24): −3.7 (3.23)
- Patient Global Assessment of Gout, Change from Baseline, Median ([1]; Week 24): −3.0
- Patient Global Assessment of Gout, Observed, Mean (SD) ([1]; Week 24): 2.0 (1.79)
- Patient Global Assessment of Gout, Observed, Median ([1]; Week 24): 3.0
- Physician Global Assessment of Gout, Change from Baseline, Mean (SD) ([1]; Week 24): −5.3 (2.10)
- Physician Global Assessment of Gout, Change from Baseline, Median ([1]; Week 24): −6.0
- Physician Global Assessment of Gout, Observed, Mean (SD) ([1]; Week 24): 0.8 (0.87)
- Physician Global Assessment of Gout, Observed, Median ([1]; Week 24): 1.0
- Patient Global Assessment of Gout, Change from Baseline, Mean (SD) ([1]; Week 36): −3.4 (2.92)
- Patient Global Assessment of Gout, Change from Baseline, Median ([1]; Week 36): −4.0
- Patient Global Assessment of Gout, Observed, Mean (SD) ([1]; Week 36): 2.1 (2.80)
- Patient Global Assessment of Gout, Observed, Median ([1]; Week 36): 1.0
- Physician Global Assessment of Gout, Change from Baseline, Mean (SD) ([1]; Week 36): −5.9 (2.03)
- Physician Global Assessment of Gout, Change from Baseline, Median ([1]; Week 36): −6.0
- Physician Global Assessment of Gout, Observed, Mean (SD) ([1]; Week 36): 0.7 (1.00)
- Physician Global Assessment of Gout, Observed, Median ([1]; Week 36): 0.0
- Patient Global Assessment of Gout, Change from Baseline, Mean (SD) ([1]; Week 52/ET): −4.3 (0.58)
- Patient Global Assessment of Gout, Change from Baseline, Median ([1]; Week 52/ET): −4.0
- Patient Global Assessment of Gout, Observed, Mean (SD) ([1]; Week 52/ET): 1.0 (1.00)
- Patient Global Assessment of Gout, Observed, Median ([1]; Week 52/ET): 1.0
- Physician Global Assessment of Gout, Change from Baseline, Mean (SD) ([1]; Week 52/ET): −7.3 (0.58)
- Physician Global Assessment of Gout, Change from Baseline, Median ([1]; Week 52/ET): −7.0
- Physician Global Assessment of Gout, Observed, Mean (SD) ([1]; Week 52/ET): 1.0 (0.00)
- Physician Global Assessment of Gout, Observed, Median ([1]; Week 52/ET): 1.0
- Cmax, Median (Q1, Q3) ([2]; BQL: below 0.6 μg/mL): 1.51 (BQL, 2.48) μg/mL
- Cmin, Median (Q1, Q3) ([2]; BQL: below 0.6 μg/mL): BQL (BQL, BQL)
- Cmax BQL, % ([2]; Quantitation Limit 0.6 μg/mL): 29%
- Cmax BQL, n/N ([2]; Quantitation Limit 0.6 μg/mL): 25/85
- Cmin BQL, % ([2]; Quantitation Limit 0.6 μg/mL): 77%
- Cmin BQL, n/N ([2]; Quantitation Limit 0.6 μg/mL): 63/82
